Source: US20240016861A1, “COMBINATION THERAPY FOR TREATING OR PREVENTING CANCER” (4D Pharma Research Limited, priority 2018, published 2024)

Tests used:
[1] = system: RENCA tumour cells; assay: Antitumor activity, RENCA model; assay type: in vivo, mouse; details: D18 and D22, compared to untreated and vehicle groups, FIG. 3B
Protocol: Treatment schedule—The start of first dosing was considered as D0. On D0, non-engrafted mice were randomized according to their individual body weight into groups of 9 mice using Vivo manager® software (Biosystemes, Couternon, France). On D0, the mice received vehicle (culture medium) or bacterial strain (2×10^8 in 200 μL, PO). On D14, all mice were engrafted with RENCA tumour cells injected SC into the ventral surface of the lower flank as described below. Treatment with anti-CTLA-4 (10 mg/kg, IP) and anti-PDL1 (clone 10F.9G2, 10 mg/kg) was initiated when tumours reached a volume of 50-70 mm3.
Orthotopic induction of RENCA tumor cells in animals by SC injection—On D14, one million (1×10^6) RENCA tumor cells in 50 ΞL RPMI 1640 medium were transplanted via SC injection into the ventral surface of the lower flank of mice.
Euthanasia - Each mouse was euthanized when it reached a humane endpoint as described in section below, or after a maximum of 6 weeks post start of dosing.
Evaluation of tumour burden at euthanasia—At the time of termination, tumours were collected and their volume evaluated.
Clinical monitoring—The length and width of the tumour was measured twice a week with callipers and the volume of the tumour was estimated by this formula [52]: […]

[2] = system: immature dendritic cells; assay: Cytokine production in immature dendritic cells; assay type: cell-based; details: compared to the negative control, MRX518 10^7/ml, LPS 100 ng/ml, FIG. 4
Protocol: A monocyte population was isolated from peripheral blood mononuclear cells (PBMCs). The monocyte cells were subsequently differentiated into immature dendritic cells. The immature dendritic cells were plated out at 200,000 cells/well and incubated with MRX518 at a final concentration of 10^7/ml, with the optional addition of LPS at a final concentration of 100 ng/ml. The negative control involved incubating the cells with RPMI media alone and positive controls incubated the cells with LPS at a final concentration of 100ng/ml. The cytokine content of the cells was then analysed.

Molecule	tumour size [1]	level of IL-6 [2]	level of TNF-α [2]
CC(=O)O[C@H]1C(=O)[C@@]2(C)[C@H]([C@H](OC(=O)c3ccccc3)[C@]3(O)C[C@H](OC(=O)[C@H](O)[C@@H](NC(=O)c4ccccc4)c4ccccc4)C(C)=C1C3(C)C)[C@]1(OC(C)=O)CO[C@@H]1C[C@@H]2O [Paclitaxel]	(almost) complete reduction		
lipopolysaccharide [LPS]		increase	increase
